Assay results from patent publication US10246456B2, “IRAK4 inhibiting agents” (BIOGEN MA INC., priority 2014, dated 2019).
pIC50: −log10 of the molar value.

The compounds below were run against IRAK4 (Homo sapiens (Human), UniProt Q9NWZ3) (assay: IRAK-4 AlphaScreen biochemical kinase assay). Settings: 1 nM IRAK4, 1 mM ATP, 3.5 h at RT.
Description: The biochemical assay is in a AlphaScreen format. The kinase reaction is based on the IRAK-4 phosphorylation of a biotin labeled peptide. The phosphopeptide is incubated with anti-phosphothreonine antibody as well as streptavidin- and protein A-coated beads. Binding of the protein-A coated beads to the antibody and the streptavidin beads to the peptide, leads to an energy transfer from one bead to the other, ultimately producing a luminescent/fluorescent signal.

IRAK4, sequence (Q9NWZ3 whole entry, species assumed): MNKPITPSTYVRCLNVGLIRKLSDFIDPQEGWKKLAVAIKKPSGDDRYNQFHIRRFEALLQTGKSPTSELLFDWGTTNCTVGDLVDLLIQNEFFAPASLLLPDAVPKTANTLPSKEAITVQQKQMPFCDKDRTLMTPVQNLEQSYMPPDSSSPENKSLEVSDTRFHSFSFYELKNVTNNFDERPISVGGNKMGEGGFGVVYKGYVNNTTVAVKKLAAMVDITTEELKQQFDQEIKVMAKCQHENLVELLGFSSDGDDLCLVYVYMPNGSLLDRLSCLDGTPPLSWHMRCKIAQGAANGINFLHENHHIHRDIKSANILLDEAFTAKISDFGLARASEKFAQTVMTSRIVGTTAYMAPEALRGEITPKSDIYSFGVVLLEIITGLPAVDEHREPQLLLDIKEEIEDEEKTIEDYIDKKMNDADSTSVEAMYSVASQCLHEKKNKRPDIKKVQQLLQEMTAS

Question: With Nc1cncc(-c2cc(CO)c3cnn(-c4cccc(C(F)(F)F)n4)c3c2)c1 [Example 54, (6-(5-aminopyridin-3-yl)-1-(6-(trifluoromethyl)pyridin-2-yl)-1H-indazol-4-yl)methanol] as the compound, how does the pIC50 read?
Answer: The pIC50 was > 7.00.

Question: With CCc1cccc(-n2ncc3ccc(-c4cccc(/C(C)=N/O)n4)cc32)n1 [Example 235, (E)-1-(6-(1-(6-ethylpyridin-2-yl)-1H-indazol-6-yl)pyridin-2-yl)ethanone oxime] as the compound, how does the pIC50 read?
Answer: The pIC50 was 5.00 to 6.00.

Question: How did the pIC50 turn out when CC(N)c1cccc(-c2ccc3cnn(-c4ccccn4)c3c2)n1 (stereo not drawn) [Example 122, 1-(6-(1-(pyridin-2-yl)-1H-indazol-6-yl)pyridin-2-yl)ethanamine] was run?
Answer: Its pIC50 is 6.00 to 7.00.

Question: Cc1cnc(-c2cc(-c3cccc([C@H](C)N)n3)cc3c2cnn3-c2cccc(CO)n2)o1 [Example 577, (S)-(6-(6-(6-(1-aminoethyl)pyridin-2-yl)-4-(5-methyloxazol-2-yl)-1H-indazol-1-yl)pyridin-2-yl)methanol] was tested. Which pIC50 did it give?
Answer: Its pIC50 is > 7.00.

Question: NC(=O)C(N)c1cccc(-c2ccc3cnn(-c4cccc(CO)n4)c3c2)n1 (stereo not drawn) [Example 561, 2-amino-2-(6-(1-(6-(hydroxymethyl)pyridin-2-yl)-1H-indazol-6-yl)pyridin-2-yl)acetamide] was tested. Which pIC50 did it give?
Answer: The pIC50 was 6.00 to 7.00.

Question: CC(=O)C[C@H](N)c1cccc(-c2ccc3cnn(-c4cccc(CO)n4)c3c2)n1 [Example 449, (S)-4-amino-4-(6-(1-(6-(hydroxymethyl)pyridin-2-yl)-1H-indazol-6-yl)pyridin-2-yl)butan-2-one] was tested. Which pIC50 did it give?
Answer: The pIC50 was > 7.00.

Question: NCc1nccc(-c2ccc3cnn(-c4cccc(C(F)(F)F)n4)c3c2)n1 [Example 95, (4-(1-(6-(trifluoromethyl)pyridin-2-yl)-1H-indazol-6-yl)pyrimidin-2-yl)methanamine] was tested. Which pIC50 did it give?
Answer: The pIC50 was 5.00 to 6.00.

Question: CC(N)c1cccc(-c2ccc3cnc(-c4cccc(CO)n4)n3c2)n1 (stereo not drawn) [Example 302, (6-(6-(6-(1-aminoethyl)pyridin-2-yl)imidazo[1,5-a]pyridin-3-yl)pyridin-2-yl)methanol] was tested. Which pIC50 did it give?
Answer: Its pIC50 is > 7.00.

Question: CCC[C@H](N)c1cccc(-c2cc(C3CCOC3)c3cnn(-c4cccc(CO)n4)c3c2)n1 (stereo partly drawn) [Example 597, (6-(6-(6-((S)-1-aminobutyl)pyridin-2-yl)-4-(tetrahydrofuran-3-yl)-1H-indazol-1-yl)pyridin-2-yl)methanol] was tested. Which pIC50 did it give?
Answer: The pIC50 was > 7.00.

Question: Cc1cc(-c2cc(-c3cccc([C@@H](N)CCCO)n3)cc3c2cnn3-c2cccc(CO)n2)nn1C [Example 392, (S)-4-amino-4-(6-(4-(1,5-dimethyl-1H-pyrazol-3-yl)-1-(6-(hydroxymethyl)pyridin-2-yl)-1H-indazol-6-yl)pyridin-2-yl)butan-1-ol] was tested. Which pIC50 did it give?
Answer: Its pIC50 is > 7.00.

Question: Nc1cncc(-c2ccc3cnn(-c4cccc(C5CC5)n4)c3c2)c1 [Example 27, 5-(1-(6-cyclopropylpyridin-2-yl)-1H-indazol-6-yl)pyridin-3-amine] was tested. Which pIC50 did it give?
Answer: Its pIC50 is > 7.00.

Question: How did the pIC50 turn out when Nc1cncc(-c2ccc3cnc(-c4cccc(C(F)(F)F)n4)n3c2)c1 [Example 78, 5-(3-(6-(trifluoromethyl)pyridin-2-yl)imidazo[1,5-a]pyridin-6-yl)pyridin-3-amine] was run?
Answer: Its pIC50 is > 7.00.

Question: How did the pIC50 turn out when CC(N)c1cccc(-c2ccc3cnc(-c4cccc(C(F)(F)F)n4)n3c2)n1 (stereo not drawn) [Example 79, 1-(6-(3-(6-(trifluoromethyl)pyridin-2-yl)imidazo[1,5-a]pyridin-6-yl)pyridin-2-yl)ethanamine] was run?
Answer: The pIC50 was > 7.00.

Question: Cc1cccc(-n2ncc3c(-c4nnc(C)o4)cc(-c4cccc(C(C)N)n4)cc32)n1 (stereo not drawn) [Example 557, 1-(6-(4-(5-methyl-1,3,4-oxadiazol-2-yl)-1-(6-methylpyridin-2-yl)-1H-indazol-6-yl)pyridin-2-yl)ethanamine] was tested. Which pIC50 did it give?
Answer: The pIC50 was 6.00 to 7.00.

Question: With CC(N)c1cc(N)cc(-c2ccc3cnn(-c4cccc(C(F)(F)F)n4)c3c2)n1 (stereo not drawn) [Example 270, 2-(1-aminoethyl)-6-(1-(6-(trifluoromethyl)pyridin-2-yl)-1H-indazol-6-yl)pyridin-4-amine] as the compound, how does the pIC50 read?
Answer: Its pIC50 is > 7.00.

Question: How did the pIC50 turn out when CNC(=O)c1cc(-c2cccc(C(C)N)n2)cc2c1cnn2-c1cccc(CO)n1 (stereo not drawn) [Example 316, 6-(6-(1-aminoethyl)pyridin-2-yl)-1-(6-(hydroxymethyl)pyridin-2-yl)-N-methyl-1H-indazole-4-carboxamide] was run?
Answer: Its pIC50 is > 7.00.

Question: With Cc1cccc(-n2ncc3c(OCC4CC4)cc(-c4cccc(C(C)N)n4)cc32)n1 (stereo not drawn) [Example 251] as the compound, how does the pIC50 read?
Answer: Its pIC50 is 6.00 to 7.00.

Question: How did the pIC50 turn out when CCC[C@H](N)c1cccc(-c2cc(OCCCO)c3cnn(-c4cccc(CO)n4)c3c2)n1 [Example 460, (S)-3-((6-(6-(1-aminobutyl)pyridin-2-yl)-1-(6-(hydroxymethyl)pyridin-2-yl)-1H-indazol-4-yl)oxy)propan-1-ol] was run?
Answer: The pIC50 was > 7.00.

Question: How did the pIC50 turn out when COCCOc1cc(-c2cccc([C@@H](N)CF)n2)cc2c1cnn2-c1cccc(CO)n1 [Example 594, (R)-(6-(6-(6-(1-amino-2-fluoroethyl)pyridin-2-yl)-4-(2-methoxyethoxy)-1H-indazol-1-yl)pyridin-2-yl)methanol] was run?
Answer: Its pIC50 is > 7.00.

Question: How did the pIC50 turn out when Cc1cccc(-n2ncc3c(O)cc(-c4cccc(C(C)N)n4)cc32)n1 (stereo not drawn) [Example 250, 6-(6-(1-aminoethyl)pyridin-2-yl)-1-(6-methylpyridin-2-yl)-1H-indazol-4-ol] was run?
Answer: The pIC50 was > 7.00.

Question: Cc1cccc(-n2ncc3ccc(-c4cccc(C(C)O)n4)cc32)n1 (stereo not drawn) [Example 130, 1-(6-(1-(6-methylpyridin-2-yl)-1H-indazol-6-yl)pyridin-2-yl)ethanol] was tested. Which pIC50 did it give?
Answer: Its pIC50 is 6.00 to 7.00.

Question: With N#Cc1cccc(-n2ncc3ccc(-c4cccc(CN)n4)cc32)n1 [Example 46, 6-(6-(6-(aminomethyl)pyridin-2-yl)-1H-indazol-1-yl)picolinonitrile] as the compound, how does the pIC50 read?
Answer: Its pIC50 is 6.00 to 7.00.

Question: CNc1cncc(-c2ccc3cnn(-c4cccc(C)n4)c3c2)c1 [Example 13, N-methyl-5-(1-(6-methylpyridin-2-yl)-1H-indazol-6-yl)pyridin-3-amine] was tested. Which pIC50 did it give?
Answer: The pIC50 was 6.00 to 7.00.

Question: N#Cc1cccc(-c2ncc3ccc(-c4cncc(N)c4)cn23)n1 [Example 76, 6-(6-(5-aminopyridin-3-yl)imidazo[1,5-a]pyridin-3-yl)picolinonitrile] was tested. Which pIC50 did it give?
Answer: The pIC50 was > 7.00.

Question: Nc1cncc(-c2ccc3cnn(-c4cccc(C(=O)NCCO)n4)c3c2)c1 [Example 65, 6-(6-(5-aminopyridin-3-yl)-1H-indazol-1-yl)-N-(2-hydroxyethyl)picolinamide] was tested. Which pIC50 did it give?
Answer: Its pIC50 is 6.00 to 7.00.

Question: How did the pIC50 turn out when CC(N)c1cccc(-c2cc(F)c3cnn(-c4cccc(C(F)(F)F)n4)c3c2)n1 (stereo not drawn) [Example 240, 1-(6-(4-fluoro-1-(6-(trifluoromethyl)pyridin-2-yl)-1H-indazol-6-yl)pyridin-2-yl)ethanamine] was run?
Answer: Its pIC50 is > 7.00.

Question: CC(N)c1cccc(-c2ccc3cnn(-c4cccc(C5CC5)n4)c3c2)n1 (stereo not drawn) [Example 119, 1-(6-(1-(6-cyclopropylpyridin-2-yl)-1H-indazol-6-yl)pyridin-2-yl)ethanamine] was tested. Which pIC50 did it give?
Answer: Its pIC50 is > 7.00.

Question: Nc1cncc(-c2cc(C(=O)O)c3cnn(-c4cccc(C(F)(F)F)n4)c3c2)c1 [Example 51, 6-(5-aminopyridin-3-yl)-1-(6-(trifluoromethyl)pyridin-2-yl)-1H-indazole-4-carboxylic acid] was tested. Which pIC50 did it give?
Answer: Its pIC50 is > 7.00.

Question: CCC[C@H](N)c1cccc(-c2cc([C@@H]3CCCN3)c3cnn(-c4cccc(CO)n4)c3c2)n1 [Example 573, (6-(6-(6-((S)-1-aminobutyl)pyridin-2-yl)-4-((S)-pyrrolidin-2-yl)-1H-indazol-1-yl)pyridin-2-yl)methanol] was tested. Which pIC50 did it give?
Answer: The pIC50 was > 7.00.

Question: How did the pIC50 turn out when Cc1cccc(-n2ncc3ccc(-c4cc(N)cnc4C)cc32)n1 [Example 204, 6-methyl-5-(1-(6-methylpyridin-2-yl)-1H-indazol-6-yl)pyridin-3-amine] was run?
Answer: Its pIC50 is 6.00 to 7.00.
